Results on 20 molecules are retold here after patent publication US9955691B2, “Macrocyclic picolinamides as fungicides” (DOW AGROSCIENCES LLC, priority 2014, dated 2018).

Experiment [1] has as its system Mycosphaerella graminicola; Anamorph: Septoria tritici. The experiment in a line: Fungicidal activity: Leaf Blotch of Wheat (SEPTTR). The format is in vivo. Conditions: Zymoseptoria tritici, wheat leaf blotch; for pest or weed control at 121.5 g/ha: Low Volume (121.5 g/H); for pest or weed control at 100 µg/mL: High Volume (100 ppm). How it is done: Evaluation of Fungicidal Activity: Leaf Blotch of Wheat (Mycosphaerella graminicola; Anamorph: Septoria tritici; Bayer Code […]) Technical grades of materials were dissolved in acetone, which were then mixed with nine volumes of water containing 110 ppm Triton X-100. The fungicide solutions were applied onto wheat seedlings using an automated booth sprayer to run-off. All sprayed plants were allowed to air dry prior to further handling. All fungicides were evaluated using the aforementioned method for their activity vs. all target diseases, unless stated otherwise. Wheat leaf blotch and brown rust activity were also evaluated using track spray applications, in which case the fungicides were formulated as EC formulations, containing 0.1% Trycol 5941 in the spray solutions. Wheat plants (variety Yuma) were grown from seed in a greenhouse in 50% mineral soil/50% soil-less Metro mix until the first leaf was fully emerged, with 7-10 seedlings per pot. These plants were inoculated with an aqueous spore suspension of Septoria tritici either prior to or after fungicide treatments. After inoculation the plants were kept in 100% relative humidity (one day in a dark dew chamber followed by two to three days in a lighted dew chamber at 20° C.) to permit spores to germinate and infect the leaf. The plants were then transferred to a greenhouse set at 20° C. for disease to develop. When disease symptoms were fully expressed on the 1st leaves of untreated plants, infection levels were assessed on a scale of 0 to 100 percent disease severity. Percent disease control was calculated using the ratio of disease severity on treated plants relative to untreated plants.

Experiment [2] deals with Puccinia triticina. The experiment in a line: Fungicidal activity: Wheat Brown Rust (PUCCRT). The format is in vivo. Conditions: for pest or weed control at 121.5 g/ha: Low Volume (121.5 g/H); for pest or weed control at 100 µg/mL: High Volume (100 ppm). Here is the method: Technical grades of materials were dissolved in acetone, which were then mixed with nine volumes of water containing 110 ppm Triton X-100. The fungicide solutions were applied onto wheat seedlings using an automated booth sprayer to run-off. All sprayed plants were allowed to air dry prior to further handling. All fungicides were evaluated using the aforementioned method for their activity vs. all target diseases, unless stated otherwise. Wheat leaf blotch and brown rust activity were also evaluated using track spray applications, in which case the fungicides were formulated as EC formulations, containing 0.1% Trycol 5941 in the spray solutions. Wheat plants (variety Yuma) were grown from seed in a greenhouse in 50% mineral soil/50% soil-less Metro mix until the first leaf was fully emerged, with 7-10 seedlings per pot. These plants were inoculated with an aqueous spore suspension of Septoria tritici either prior to or after fungicide treatments. After inoculation the plants were kept in 100% relative humidity (one day in a dark dew chamber followed by two to three days in a lighted dew chamber at 20° C.) to permit spores to germinate and infect the leaf. The plants were then transferred to a greenhouse set at 20° C. for disease to develop. When disease symptoms were fully expressed on the 1st leaves of untreated plants, infection levels were assessed on a scale of 0 to 100 percent disease severity. Percent disease control was calculated using the ratio of disease severity on treated plants relative to untreated plants. Evaluation of Fungicidal Activity: Wheat Brown Rust (Puccinia triticina; Synonym: Puccinia recondite f. Sp. Tritici; Bayer Code PUCCRT) Wheat plants (variety Yuma) were grown from seed in a greenhouse in 50% mineral soil/50% soil-less Metro mix until the first leaf was fully emerged, with 7-10 seedlings per pot. These plants were inoculated with an aqueous spore suspension of Puccinia triticina either prior to or after fungicide treatments. After inoculation the plants were kept in a dark dew room at 22° C. with 100% relative humidity overnight to permit spores to germinate and infect the leaf. The plants were then transferred to a greenhouse set at 24° C. for disease to develop. Fungicide formulation, application and disease assessment followed the procedures as described in the Example A.

[3] abbreviates: 24 h, 1 Day Protectant, read-out: SEPTTR 1 DP disease control.
The mark [4] stands for this setting: 72 h, 3 Day Curative, read-out: SEPTTR 3 DC disease control.
[5] abbreviates: 24 h, 1 Day Protectant, read-out: PUCCRT 1 DP disease control.
[6] abbreviates: 72 h, 3 Day Curative, read-out: PUCCRT 3 DC disease control.

Like-named read-outs stand apart in the source and are kept apart here. Bounds are passed on as bounds.

Take `CCC[C@H]1COC[C@H](NC(=O)c2nccc(OC)c2OC(C)=O)C(=O)O[C@@H](C)[C@@H]1c1ccccc1` [compound 98]: the pest or weed control at 121.5 g/ha in experiment [1] (setting [3]), in experiment [1] (setting [4]), in experiment [2] (setting [5]) and in experiment [2] (setting [6]) was over 70% each time.

Take `C=C(C)COC[C@@H]1[C@@H](Cc2ccccc2)COC[C@H](NC(=O)c2nccc(OC)c2O)C(=O)O[C@H]1C` [compound 120]: the pest or weed control at 100 µg/mL in experiment [1] (setting [3]), in experiment [1] (setting [4]), in experiment [2] (setting [5]) and in experiment [2] (setting [6]) was under 70% each time.

With `COc1ccnc(C(=O)N[C@H]2COC[C@H](Cc3ccccc3)[C@@H](Cc3ccc(OC(F)(F)F)cc3)[C@H](C)OC2=O)c1OC(C)=O` [compound 50], the pest or weed control at 121.5 g/ha in experiment [1] (setting [3]) is over 70%; in experiment [1] (setting [4]) it was under 70%; in experiment [2] (setting [5]), over 70%; in experiment [2] (setting [6]) it was under 70%.

In the case of `COc1ccnc(C(=O)N[C@@H]2COC[C@@H](Cc3ccccc3)[C@H](COCC(C)C)[C@@H](C)OC2=O)c1O` [compound 122], the pest or weed control at 100 µg/mL in experiment [1] (setting [3]), in experiment [1] (setting [4]), in experiment [2] (setting [5]) and in experiment [2] (setting [6]) was under 70% each time.

In the case of `CCC[C@H]1COC[C@H](NC(=O)c2nccc(OC)c2OC(C)=O)C(=O)O[C@@H](C)[C@@H]1CC(C)C` [compound 64], the pest or weed control at 121.5 g/ha in experiment [1] (setting [3]), in experiment [1] (setting [4]), in experiment [2] (setting [5]) and in experiment [2] (setting [6]) was over 70% each time.

In the case of `COc1ccnc(C(=O)N[C@H]2COC[C@H](CCC(C)C)[C@@H](C3CCCC3)[C@H](C)OC2=O)c1OCOC(=O)C(C)C` [compound 94, ((2-(((3S,7R,8R,9S)-8-cyclopentyl-7-isopentyl-9-methyl-2-oxo-1,5-dioxonan-3-yl)carbamoyl)-4-methoxypyridin-3-yl)oxy)methyl isobutyrate], the pest or weed control at 121.5 g/ha in experiment [1] (setting [3]) is over 70%; in experiment [1] (setting [4]), over 70%; in experiment [2] (setting [5]) it was over 70%; in experiment [2] (setting [6]) it was under 70%.

Consider `COc1ccnc(C(=O)N[C@H]2COC[C@H](CC3CCCC3)[C@@H](CC3CCCC3)[C@H](C)OC2=O)c1OCOC(C)=O` [compound 26], for which the pest or weed control at 121.5 g/ha in experiment [1] (setting [3]), in experiment [1] (setting [4]), in experiment [2] (setting [5]) and in experiment [2] (setting [6]) was over 70% throughout.

With `COc1ccnc(C(=O)N[C@H]2COC[C@H](Cc3ccccc3)[C@@H](Cc3ccccc3)[C@@H](C)OC2=O)c1OCOC(C)=O` [compound 2], the pest or weed control at 100 µg/mL in experiment [1] (setting [3]), in experiment [1] (setting [4]), in experiment [2] (setting [5]) and in experiment [2] (setting [6]) was under 70% in each case.

For `COc1ccnc(C(=O)N[C@H]2COC[C@H](Cc3ccc(C(F)(F)F)cc3)[C@@H](Cc3ccc(OC(F)(F)F)cc3)[C@H](C)OC2=O)c1O` [compound 138], the pest or weed control at 100 µg/mL in experiment [1] (setting [3]), in experiment [1] (setting [4]), in experiment [2] (setting [5]) and in experiment [2] (setting [6]) was under 70% throughout.

For the molecule `COc1ccnc(C(=O)N[C@H]2COC[C@H](Cc3ccccc3)[C@@H](CCC(C)C)[C@H](C)OC2=O)c1OCOC(C)=O` [compound 85], the pest or weed control at 121.5 g/ha in experiment [1] (setting [3]), in experiment [1] (setting [4]), in experiment [2] (setting [5]) and in experiment [2] (setting [6]) was over 70% in each case.

For the molecule `COc1ccnc(C(=O)N[C@H]2COC[C@H](Cc3ccccc3)[C@@H](COCC(C)C)[C@H](C)OC2=O)c1OCOC(C)=O` [compound 12], the pest or weed control at 100 µg/mL in experiment [1] (setting [3]), in experiment [1] (setting [4]), in experiment [2] (setting [5]) and in experiment [2] (setting [6]) was over 70% throughout. Further, the pest or weed control at 121.5 g/ha in experiment [1] (setting [3]) was over 70%; in experiment [1] (setting [4]) it was over 70%; in experiment [2] (setting [5]), over 70%; in experiment [2] (setting [6]), under 70%.

Take `COc1ccnc(C(=O)N[C@H]2COC[C@H](Cc3ccc(Cl)cc3)[C@@H](CC(C)C)[C@H](C)OC2=O)c1O` [compound 145]: the pest or weed control at 100 µg/mL in experiment [1] (setting [3]), in experiment [1] (setting [4]), in experiment [2] (setting [5]) and in experiment [2] (setting [6]) was over 70% each time.

Take `COc1ccnc(C(=O)N[C@H]2COC[C@H](Cc3ccccc3)[C@@H](Cc3ccc(OC(F)(F)F)cc3)[C@H](C)OC2=O)c1OCOC(=O)C(C)C` [compound 48]: the pest or weed control at 121.5 g/ha in experiment [1] (setting [3]) is over 70%; in experiment [1] (setting [4]), over 70%; in experiment [2] (setting [5]) it was over 70%; in experiment [2] (setting [6]), under 70%.

Regarding `CCOCC(=O)OCOc1c(OC)ccnc1C(=O)N[C@H]1COC[C@H](Cc2ccc(Cl)cc2)[C@@H](CC(C)C)[C@H](C)OC1=O` [compound 74], the pest or weed control at 121.5 g/ha in experiment [1] (setting [3]) is over 70%; in experiment [1] (setting [4]), over 70%; in experiment [2] (setting [5]), over 70%; in experiment [2] (setting [6]), under 70%.

In the case of `COc1ccnc(C(=O)N[C@H]2COC[C@H](CC3CC3)[C@@H](c3ccccc3)[C@H](C)OC2=O)c1OCOC(=O)C(C)C` [compound 102], the pest or weed control at 121.5 g/ha in experiment [1] (setting [3]), in experiment [1] (setting [4]), in experiment [2] (setting [5]) and in experiment [2] (setting [6]) was over 70% in each case.

As for `CCC[C@H]1COC[C@H](NC(=O)c2nccc(OC)c2OCOC(=O)C(C)C)C(=O)O[C@@H](C)[C@@H]1c1ccccc1` [compound 99], the pest or weed control at 121.5 g/ha in experiment [1] (setting [3]), in experiment [1] (setting [4]), in experiment [2] (setting [5]) and in experiment [2] (setting [6]) was over 70% each time.

In the case of `CCC[C@H]1COC[C@H](NC(=O)c2nccc(OC)c2OCOC(=O)C(C)C)C(=O)O[C@@H](C)[C@@H]1CC(C)C` [compound 65], the pest or weed control at 121.5 g/ha in experiment [1] (setting [3]), in experiment [1] (setting [4]), in experiment [2] (setting [5]) and in experiment [2] (setting [6]) was over 70% throughout.

`COc1ccnc(C(=O)N[C@H]2COC[C@H](CC3CC3)[C@@H](Cc3ccc(F)cc3)[C@H](C)OC2=O)c1OCOC(C)=O` [compound 104]: the pest or weed control at 121.5 g/ha in experiment [1] (setting [3]), in experiment [1] (setting [4]), in experiment [2] (setting [5]) and in experiment [2] (setting [6]) was over 70% each time.

Turning to `COc1ccnc(C(=O)N[C@H]2COC[C@H](Cc3ccc(Cl)cc3)[C@@H](CC(C)C)[C@H](C)OC2=O)c1OCOC(C)=O` [compound 73], the pest or weed control at 121.5 g/ha in experiment [1] (setting [3]) is over 70%; in experiment [1] (setting [4]) it was over 70%; in experiment [2] (setting [5]), over 70%; in experiment [2] (setting [6]), under 70%.

`COc1ccnc(C(=O)N[C@H]2COC[C@H](Cc3ccccc3)[C@@H](c3ccccc3)[C@H](C)OC2=O)c1OCOC(C)=O` [compound 53]: the pest or weed control at 121.5 g/ha in experiment [1] (setting [3]), in experiment [1] (setting [4]), in experiment [2] (setting [5]) and in experiment [2] (setting [6]) was over 70% each time.
